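Values below derive from 48-hour exposures of cells grown in 96-well plates, with endpoints linearly interpolated between the two concentrations bracketing the appropriate inhibition level. Here, GI50 denotes the concentration required for 50% inhibition of growth.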 The source made the active and inactive calls. Cut-off read from the data, not from the text of the source: active = GI50 up to about 1.1 µM and inactive = higher.
Tests used:
Test in all cases: inhibition of tumour cell growth, NCI panel, 48 h
MOLT-4 = test system: MOLT-4
OVCAR-3 = test system: OVCAR-3
NCI-H522 = test system: NCI-H522
SK-MEL-5 = test system: SK-MEL-5
MDA-MB-231 = test system: MDA-MB-231
SW-620 = test system: SW-620
Malme-3M = test system: Malme-3M
UO-31 = test system: UO-31
ACHN = test system: ACHN
HOP-92 = test system: HOP-92
HT-29 = test system: HT-29
LOX IMVI = test system: LOX IMVI
RPMI-8226 = test system: RPMI-8226
SN12C = test system: SN12C
MDA-MB-435 = test system: MDA-MB-435
OVCAR-5 = test system: OVCAR-5
SR = test system: SR
SF-295 = test system: SF-295
PC-3 = test system: PC-3
NCI-H226 = test system: NCI-H226
SK-MEL-28 = test system: SK-MEL-28
SF-539 = test system: SF-539
K562 = test system: K562
OVCAR-4 = test system: OVCAR-4
KM12 = test system: KM12
T47D = test system: T47D
SNB-19 = test system: SNB-19
DU-145 = test system: DU-145
M14 = test system: M14
HOP-62 = test system: HOP-62
MCF7 = test system: MCF7
HCT-15 = test system: HCT-15
CCRF-CEM = test system: CCRF-CEM
HCC 2998 = test system: HCC 2998
U-251 = test system: U-251
TK-10 = test system: TK-10
Hs-578T = test system: Hs-578T
MDA-N = test system: MDA-N
RXF 393 = test system: RXF 393
COLO 205 = test system: COLO 205
OVCAR-8 = test system: OVCAR-8
HL-60 = test system: HL-60
SF-268 = test system: SF-268
UACC-257 = test system: UACC-257
NCI-H460 = test system: NCI-H460
IGROV-1 = test system: IGROV-1
BT-549 = test system: BT-549
A549 = test system: A549
SNB-75 = test system: SNB-75
SK-OV-3 = test system: SK-OV-3
NCI/ADR-RES = test system: NCI/ADR-RES
HCT-116 = test system: HCT-116
NCI-H23 = test system: NCI-H23
786-0 = test system: 786-0
UACC-62 = test system: UACC-62
CAKI-1 = test system: CAKI-1
A498 = test system: A498
SK-MEL-2 = test system: SK-MEL-2
EKVX = test system: EKVX

CC(=O)OC1CC2(C)C(OC(C)=O)CC1C2(C)C (centres undefined)
GI50 (MOLT-4): > 100 µM (inactive)
GI50 (OVCAR-3): > 100 µM (inactive)
GI50 (NCI-H522): > 100 µM (inactive)
GI50 (SK-MEL-5): > 100 µM (inactive)
GI50 (MDA-MB-231): > 100 µM (inactive)
GI50 (SW-620): > 100 µM (inactive)
GI50 (Malme-3M): > 100 µM (inactive)
GI50 (UO-31): > 100 µM (inactive)
GI50 (ACHN): > 100 µM (inactive)
GI50 (HOP-92): > 100 µM (inactive)
GI50 (HT-29): > 100 µM (inactive)
GI50 (LOX IMVI): > 100 µM (inactive)
GI50 (RPMI-8226): > 100 µM (inactive)
GI50 (SN12C): > 100 µM (inactive)
GI50 (MDA-MB-435): > 100 µM (inactive)
GI50 (OVCAR-5): > 100 µM (inactive)
GI50 (SR): > 100 µM (inactive)
GI50 (SF-295): > 100 µM (inactive)
GI50 (PC-3): > 100 µM (inactive)
GI50 (NCI-H226): > 100 µM (inactive)
GI50 (SK-MEL-28): > 100 µM (inactive)
GI50 (SF-539): > 100 µM (inactive)
GI50 (K562): > 100 µM (inactive)
GI50 (OVCAR-4): > 100 µM (inactive)
GI50 (KM12): > 100 µM (inactive)
GI50 (T47D): > 100 µM (inactive)
GI50 (SNB-19): > 100 µM (inactive)
GI50 (DU-145): > 100 µM (inactive)
GI50 (M14): > 100 µM (inactive)
GI50 (HOP-62): > 100 µM (inactive)
GI50 (MCF7): > 100 µM (inactive)
GI50 (HCT-15): > 100 µM
GI50 (CCRF-CEM): > 100 µM (inactive)
GI50 (HCC 2998): > 100 µM (inactive)
GI50 (U-251): > 100 µM (inactive)
GI50 (TK-10): > 100 µM (inactive)
GI50 (Hs-578T): > 100 µM (inactive)
GI50 (MDA-N): > 100 µM (inactive)
GI50 (RXF 393): > 100 µM (inactive)
GI50 (COLO 205): > 100 µM (inactive)
GI50 (OVCAR-8): > 100 µM (inactive)
GI50 (HL-60): > 100 µM (inactive)
GI50 (SF-268): > 100 µM (inactive)
GI50 (UACC-257): > 100 µM (inactive)
GI50 (NCI-H460): > 100 µM (inactive)
GI50 (IGROV-1): > 100 µM (inactive)
GI50 (BT-549): > 100 µM (inactive)
GI50 (A549): > 100 µM (inactive)
GI50 (SNB-75): > 100 µM (inactive)
GI50 (SK-OV-3): > 100 µM (inactive)
GI50 (NCI/ADR-RES): > 100 µM (inactive)
GI50 (HCT-116): > 100 µM (inactive)
GI50 (NCI-H23): > 100 µM (inactive)
GI50 (786-0): > 100 µM (inactive)
GI50 (UACC-62): > 100 µM (inactive)

COc1ccc(N2C(=O)C3c4[nH]c5cccc(Cl)c5c4C4CCC(C(C)(C)C)CC4C3C2=O)cc1 (centres undefined)
GI50 (MOLT-4): > 100 µM (inactive)
GI50 (OVCAR-3): > 100 µM (inactive)
GI50 (NCI-H522): > 100 µM (inactive)
GI50 (SK-MEL-5): > 100 µM (inactive)
GI50 (MDA-MB-231): > 100 µM (inactive)
GI50 (SW-620): > 100 µM (inactive)
GI50 (Malme-3M): > 100 µM (inactive)
GI50 (UO-31): > 100 µM (inactive)
GI50 (ACHN): > 100 µM (inactive)
GI50 (HOP-92): 83.2 µM (inactive)
GI50 (HT-29): > 100 µM (inactive)
GI50 (LOX IMVI): > 100 µM (inactive)
GI50 (RPMI-8226): > 100 µM (inactive)
GI50 (SN12C): > 100 µM (inactive)
GI50 (MDA-MB-435): > 100 µM (inactive)
GI50 (OVCAR-5): > 100 µM (inactive)
GI50 (SR): 8.47 µM (inactive)
GI50 (SF-295): 47.2 µM (inactive)
GI50 (PC-3): > 100 µM (inactive)
GI50 (NCI-H226): > 100 µM (inactive)
GI50 (SK-MEL-28): > 100 µM (inactive)
GI50 (SF-539): 64.7 µM (inactive)
GI50 (K562): > 100 µM (inactive)
GI50 (OVCAR-4): > 100 µM (inactive)
GI50 (CAKI-1): > 100 µM (inactive)
GI50 (KM12): > 100 µM (inactive)
GI50 (T47D): > 100 µM (inactive)
GI50 (SNB-19): 41.5 µM (inactive)
GI50 (DU-145): > 100 µM (inactive)
GI50 (M14): > 100 µM (inactive)
GI50 (HOP-62): 16.3 µM (inactive)
GI50 (A498): 74.1 µM (inactive)
GI50 (MCF7): > 100 µM (inactive)
GI50 (HCT-15): > 100 µM
GI50 (SK-MEL-2): 94.6 µM (inactive)
GI50 (HCC 2998): > 100 µM (inactive)
GI50 (U-251): 39.2 µM (inactive)
GI50 (TK-10): > 100 µM (inactive)
GI50 (Hs-578T): 21.9 µM (inactive)
GI50 (MDA-N): > 100 µM (inactive)
GI50 (COLO 205): > 100 µM (inactive)
GI50 (OVCAR-8): 84.3 µM (inactive)
GI50 (SF-268): 50.6 µM (inactive)
GI50 (UACC-257): > 100 µM (inactive)
GI50 (NCI-H460): > 100 µM (inactive)
GI50 (IGROV-1): > 100 µM (inactive)
GI50 (BT-549): > 100 µM (inactive)
GI50 (A549): > 100 µM (inactive)
GI50 (SNB-75): 19.1 µM (inactive)
GI50 (EKVX): > 100 µM (inactive)
GI50 (SK-OV-3): 64.9 µM (inactive)
GI50 (NCI/ADR-RES): > 100 µM (inactive)
GI50 (HCT-116): > 100 µM (inactive)
GI50 (NCI-H23): > 100 µM (inactive)
GI50 (786-0): 31.6 µM (inactive)
GI50 (UACC-62): > 100 µM (inactive)

Cc1[nH]c(=O)c2oc3cc4ccccc4cc3c2c1C(=O)O
GI50 (OVCAR-3): > 10 µM (inactive)
GI50 (NCI-H522): > 10 µM (inactive)
GI50 (MDA-MB-231): > 10 µM (inactive)
GI50 (SW-620): > 10 µM (inactive)
GI50 (Malme-3M): > 10 µM (inactive)
GI50 (UO-31): > 10 µM (inactive)
GI50 (ACHN): > 10 µM (inactive)
GI50 (HOP-92): > 10 µM (inactive)
GI50 (HT-29): > 10 µM (inactive)
GI50 (LOX IMVI): > 10 µM (inactive)
GI50 (SN12C): > 10 µM (inactive)
GI50 (MDA-MB-435): > 10 µM (inactive)
GI50 (OVCAR-5): > 10 µM (inactive)
GI50 (SR): > 10 µM (inactive)
GI50 (SF-295): 8.99 µM (inactive)
GI50 (PC-3): > 10 µM (inactive)
GI50 (NCI-H226): > 10 µM (inactive)
GI50 (SF-539): > 10 µM (inactive)
GI50 (OVCAR-4): > 10 µM (inactive)
GI50 (KM12): > 10 µM (inactive)
GI50 (T47D): > 10 µM (inactive)
GI50 (SNB-19): > 10 µM (inactive)
GI50 (DU-145): > 10 µM (inactive)
GI50 (M14): > 10 µM (inactive)
GI50 (MCF7): > 10 µM (inactive)
GI50 (HCT-15): > 10 µM
GI50 (SK-MEL-2): > 10 µM (inactive)
GI50 (HCC 2998): > 10 µM (inactive)
GI50 (U-251): > 10 µM (inactive)
GI50 (TK-10): > 10 µM (inactive)
GI50 (Hs-578T): > 10 µM (inactive)
GI50 (MDA-N): > 10 µM (inactive)
GI50 (RXF 393): > 10 µM (inactive)
GI50 (OVCAR-8): > 10 µM (inactive)
GI50 (HL-60): > 10 µM (inactive)
GI50 (SF-268): > 10 µM (inactive)
GI50 (UACC-257): > 10 µM (inactive)
GI50 (NCI-H460): > 10 µM (inactive)
GI50 (IGROV-1): > 10 µM (inactive)
GI50 (BT-549): > 10 µM (inactive)
GI50 (A549): > 10 µM (inactive)
GI50 (SNB-75): > 10 µM (inactive)
GI50 (EKVX): > 10 µM (inactive)
GI50 (SK-OV-3): > 10 µM (inactive)
GI50 (NCI/ADR-RES): > 10 µM (inactive)
GI50 (NCI-H23): > 10 µM (inactive)
GI50 (786-0): > 10 µM (inactive)
GI50 (UACC-62): > 10 µM (inactive)
